Measurements: the NIST ThermoML archive (doi:10.1016/j.tca.2015.06.017)

Test: xn = mol fraction of the nth substance listed
Settings: Liquid, Vibrating tube method

CC(C)CCl [1-chloro-2-methylpropane] + CCCCCCC
mass density [kg/m3]
Settings | 283.15 K | 293.15 K
100 kPa, x2 = 0.0531 | 874.07 | 862.97
100 kPa, x2 = 0.1023 | 861 | 850.09
100 kPa, x2 = 0.2009 | 836.3 | 825.74
100 kPa, x2 = 0.3009 | 813.26 | 803.04
100 kPa, x2 = 0.3981 | 792.55 | 782.63
100 kPa, x2 = 0.4986 | 772.68 | 763.05
100 kPa, x2 = 0.5998 | 754.11 | 744.76
100 kPa, x2 = 0.7038 | 736.38 | 727.31
100 kPa, x2 = 0.7993 | 721.25 | 712.4
100 kPa, x2 = 0.8995 | 706.4 | 697.78
100 kPa, x2 = 0.9507 | 699.19 | 690.68
2000 kPa, x2 = 0.0531 | 876.04 | 865
2000 kPa, x2 = 0.1023 | 862.99 | 852.14
2000 kPa, x2 = 0.2009 | 838.37 | 827.88
2000 kPa, x2 = 0.3009 | 815.32 | 805.15
2000 kPa, x2 = 0.3981 | 794.55 | 784.68
2000 kPa, x2 = 0.4986 | 774.64 | 765.08
2000 kPa, x2 = 0.5998 | 756.04 | 746.74
2000 kPa, x2 = 0.7038 | 738.29 | 729.29
2000 kPa, x2 = 0.7993 | 723.14 | 714.35
2000 kPa, x2 = 0.8995 | 708.31 | 699.74
2000 kPa, x2 = 0.9507 | 701.15 | 692.69
5000 kPa, x2 = 0.0531 | 879.03 | 868.28
5000 kPa, x2 = 0.1023 | 865.96 | 855.4
5000 kPa, x2 = 0.2009 | 841.29 | 831.08
5000 kPa, x2 = 0.3009 | 818.18 | 808.31
5000 kPa, x2 = 0.3981 | 797.37 | 787.79
5000 kPa, x2 = 0.4986 | 777.41 | 768.11
5000 kPa, x2 = 0.5998 | 758.77 | 749.74
5000 kPa, x2 = 0.7038 | 741 | 732.21
5000 kPa, x2 = 0.7993 | 725.78 | 717.25
5000 kPa, x2 = 0.8995 | 710.91 | 702.62
5000 kPa, x2 = 0.9507 | 703.73 | 695.55
7000 kPa, x2 = 0.0531 | 880.97 | 870.39
7000 kPa, x2 = 0.1023 | 867.88 | 857.47
7000 kPa, x2 = 0.2009 | 843.19 | 833.12
7000 kPa, x2 = 0.3009 | 820.06 | 810.3
7000 kPa, x2 = 0.3981 | 799.24 | 789.75
7000 kPa, x2 = 0.4986 | 779.24 | 770.05
7000 kPa, x2 = 0.5998 | 760.58 | 751.63
7000 kPa, x2 = 0.7038 | 742.77 | 734.07
7000 kPa, x2 = 0.7993 | 727.56 | 719.06
7000 kPa, x2 = 0.8995 | 712.67 | 704.42
7000 kPa, x2 = 0.9507 | 705.48 | 697.32
10000 kPa, x2 = 0.0531 | 883.84 | 873.43
10000 kPa, x2 = 0.1023 | 870.72 | 860.49
10000 kPa, x2 = 0.2009 | 845.97 | 836.1
10000 kPa, x2 = 0.3009 | 822.78 | 813.24
10000 kPa, x2 = 0.3981 | 801.92 | 792.65
10000 kPa, x2 = 0.4986 | 781.87 | 772.89
10000 kPa, x2 = 0.5998 | 763.16 | 754.46
10000 kPa, x2 = 0.7038 | 745.31 | 736.87
10000 kPa, x2 = 0.7993 | 730.05 | 721.81
10000 kPa, x2 = 0.8995 | 715.13 | 707.11
10000 kPa, x2 = 0.9507 | 707.91 | 700
20000 kPa, x2 = 0.0531 | 892.78 | 882.96
20000 kPa, x2 = 0.1023 | 879.6 | 869.95
20000 kPa, x2 = 0.2009 | 854.73 | 845.39
20000 kPa, x2 = 0.3009 | 831.42 | 822.38
20000 kPa, x2 = 0.3981 | 810.43 | 801.64
20000 kPa, x2 = 0.4986 | 790.3 | –
20000 kPa, x2 = 0.5998 | 771.47 | –
20000 kPa, x2 = 0.7038 | 753.52 | –
20000 kPa, x2 = 0.7993 | 738.16 | –
20000 kPa, x2 = 0.8995 | 723.13 | –
20000 kPa, x2 = 0.9507 | 715.85 | –
30000 kPa, x2 = 0.0531 | 900.97 | –
30000 kPa, x2 = 0.1023 | 887.68 | –
30000 kPa, x2 = 0.2009 | 862.6 | –
30000 kPa, x2 = 0.3009 | 839.17 | –
30000 kPa, x2 = 0.3981 | 818.12 | –
30000 kPa, x2 = 0.4986 | 797.85 | –
30000 kPa, x2 = 0.5998 | 778.93 | –
30000 kPa, x2 = 0.7038 | 760.8 | –
30000 kPa, x2 = 0.7993 | 745.44 | –
30000 kPa, x2 = 0.8995 | 730.29 | –
30000 kPa, x2 = 0.9507 | 722.95 | –
40000 kPa, x2 = 0.0531 | 908.57 | –
40000 kPa, x2 = 0.1023 | 895.22 | –
40000 kPa, x2 = 0.2009 | 870.06 | –
40000 kPa, x2 = 0.3009 | 846.56 | –
40000 kPa, x2 = 0.3981 | 825.29 | –
40000 kPa, x2 = 0.4986 | 804.92 | –
40000 kPa, x2 = 0.5998 | 785.84 | –
40000 kPa, x2 = 0.7038 | 767.67 | –
40000 kPa, x2 = 0.7993 | 752.19 | –
40000 kPa, x2 = 0.8995 | 736.93 | –
40000 kPa, x2 = 0.9507 | 729.53 | –
50000 kPa, x2 = 0.0531 | 915.66 | –
50000 kPa, x2 = 0.1023 | 902.32 | –
50000 kPa, x2 = 0.2009 | 876.98 | –
50000 kPa, x2 = 0.3009 | 853.42 | –
50000 kPa, x2 = 0.3981 | 832.08 | –
50000 kPa, x2 = 0.4986 | 811.56 | –
50000 kPa, x2 = 0.5998 | 792.36 | –
50000 kPa, x2 = 0.7038 | 774.06 | –
50000 kPa, x2 = 0.7993 | 758.41 | –
50000 kPa, x2 = 0.8995 | 743.05 | –
50000 kPa, x2 = 0.9507 | 735.59 | –
60000 kPa, x2 = 0.0531 | 922.27 | –
60000 kPa, x2 = 0.1023 | 908.86 | –
60000 kPa, x2 = 0.2009 | 883.47 | –
60000 kPa, x2 = 0.3009 | 859.78 | –
60000 kPa, x2 = 0.3981 | 838.33 | –
60000 kPa, x2 = 0.4986 | 817.73 | –
60000 kPa, x2 = 0.5998 | 798.43 | –
60000 kPa, x2 = 0.7038 | 780.03 | –
60000 kPa, x2 = 0.7993 | 764.33 | –
60000 kPa, x2 = 0.8995 | 748.87 | –
60000 kPa, x2 = 0.9507 | 741.35 | –
65000 kPa, x2 = 0.0531 | 925.46 | –
65000 kPa, x2 = 0.1023 | 912 | –
65000 kPa, x2 = 0.2009 | 886.55 | –
65000 kPa, x2 = 0.3009 | 862.78 | –
65000 kPa, x2 = 0.3981 | 841.29 | –
65000 kPa, x2 = 0.4986 | 820.65 | –
65000 kPa, x2 = 0.5998 | 801.22 | –
65000 kPa, x2 = 0.7038 | 782.82 | –
65000 kPa, x2 = 0.7993 | 767.1 | –
65000 kPa, x2 = 0.8995 | 751.59 | –
65000 kPa, x2 = 0.9507 | 744.04 | –
